Experiment [1] deals with Beet Armyworm (Spodoptera exigua) ("BAW"), second instar larvae. Kind of experiment: Bioassay on beet armyworm (BAW), 128-well diet tray assay. The class given is in vivo. The following applies: for pest or weed control at 50 µg/cm2: Spodoptera exigua. The protocol:
(§1) Certain molecules disclosed in this document were tested against BAW and CL using procedures described in the following examples. In the reporting of the results, the “BAW & CL Rating Table” was used (See Table Section).
(§2) Trays were covered with a clear self-adhesive cover and held at 25° C., 14:10 light-dark cycle for five to seven days. Percent mortality was recorded for the larvae in each well; activity in the eight wells was then averaged. The results are indicated in the table entitled “Table ABC: Biological Results” (See Table Section).

The subject of experiment [2] is Cabbage Looper (Trichoplusia ni) ("CL"), second instar larvae. The experiment can be described thus: Bioassay on cabbage looper (CL), 128-well diet tray assay. The class given is in vivo. The following applies: for pest or weed control at 50 µg/cm2: Trichoplusia ni. The protocol:
as §1, §2

Where [3] appears, read: read-out: BAW (Biological Results, rating).
Where [4] appears, read: read-out: CL (Biological Results, rating).

Where two headings read alike, the source gives them in different places.

As to `O=C(/N=C1\SCC(=O)N1c1cc(C(F)(F)F)ccc1C(F)(F)F)Nc1ccc(-c2ncn(-c3ccc(OC(F)(F)F)cc3)n2)cc1F` [Compound J50, (Z)-1-(3-(2,5-Bis(trifluoromethyl)phenyl)-4-oxothiazolidin-2-ylidene)-3-(2-fluoro-4-(1-(4-(trifluoromethoxy)phenyl)-1H-1,2,4-triazol-3-yl)phenyl)urea], the pest or weed control at 50 µg/cm2 in experiment [1] (setting [3]) and in experiment [2] (setting [4]) was 50 to 100% each time. Turning to `COC(C)c1ccc(C)cc1N1C(=O)CS/C1=N\C(=O)Nc1ccc(-c2ncn(-c3ccc(OC(F)(F)F)cn3)n2)cc1C` (stereo not drawn) [Compound J240, (Z)-1-(3-(2-(1-Methoxyethyl)-5-methylphenyl)-4-oxothiazolidin-2-ylidene)-3-(2-methyl-4-(1-(5-(trifluoromethoxy)pyridin-2-yl)-1H-1,2,4-triazol-3-yl)phenyl)urea], the pest or weed control at 50 µg/cm2 in experiment [1] (setting [3]) and in experiment [2] (setting [4]) was 50 to 100% in each case. With `Cc1ccc(OCCC(F)(F)F)c(N2C(=O)CS/C2=N\C(=O)Nc2ccc(-c3cn(-c4ccc(C(F)(F)F)cc4)cn3)cc2C)c1` [Compound J527, (Z)-1-(3-(5-Methyl-2-(3,3,3-trifluoropropoxy)phenyl)-4-oxothiazolidin-2-ylidene)-3-(2-methyl-4-(1-(4-(trifluoromethyl)phenyl)-1H-imidazol-4-yl)phenyl)urea], the pest or weed control at 50 µg/cm2 in experiment [1] (read-out: BAW rating) and in experiment [2] (read-out: CL rating) was 50 to 100% each time.

Consider `COc1ccc(C(C)C)c(N2C(=O)CS/C2=N\C(=O)Nc2ccc(-c3ncn(-c4ccc(OC(F)(F)F)cc4)n3)cc2C)c1` [Compound J54, (Z)-1-(3-(2-Isopropyl-5-methoxyphenyl)-4-oxothiazolidin-2-ylidene)-3-(2-methyl-4-(1-(4-(trifluoromethoxy)phenyl)-1H-1,2,4-triazol-3-yl)phenyl)urea], for which the pest or weed control at 50 µg/cm2 in experiment [1] (setting [3]) and in experiment [2] (setting [4]) was 50 to 100% in each case. For the compound `Cc1ccc(OCCC(F)(F)F)c(N2C(=O)CS/C2=N\C(=O)Nc2ccc(-c3cn(-c4ccc(C(F)(F)F)cn4)cn3)cc2C)c1` [Compound J512, (Z)-1-(3-(5-Methyl-2-(3,3,3-trifluoropropoxy)phenyl)-4-oxothiazolidin-2-ylidene)-3-(2-methyl-4-(1-(5-(trifluoromethyl)pyridin-2-yl)-1H-imidazol-4-yl)phenyl)urea], the pest or weed control at 50 µg/cm2 in experiment [1] (read-out: BAW rating) and in experiment [2] (read-out: CL rating) was 50 to 100% each time.

With `Cc1ccc(COCCC(F)(F)F)c(N2C(=O)CS/C2=N\C(=O)Nc2ccc(-c3ncn(-c4ccc(OC(F)(F)F)cc4)n3)cc2F)c1` [Compound J543], the BAW rating result in experiment [1] (Table ABC, species BAW, C = not tested, D = no activity noticed) is given as “A (50-100)”. Also, the CL rating entry in experiment [2] (Table ABC, species CL, C = not tested, D = no activity noticed) is “A (50-100)”.

Take `CCCc1ccc(C)cc1N1C(=O)CS/C1=N\C(=O)Nc1ccc(-c2ncn(-c3ccc(C(F)(F)F)cc3)n2)cc1C` [Compound J15, (Z)-1-(3-(5-Methyl-2-propylphenyl)-4-oxothiazolidin-2-ylidene)-3-(2-methyl-4-(1-(4-(trifluoromethyl)phenyl)-1H-1,2,4-triazol-3-yl)phenyl)urea]: the pest or weed control at 50 µg/cm2 in experiment [1] (setting [3]) and in experiment [2] (setting [4]) was 50 to 100% each time. Turning to `CC(C)c1ccc(N(C)C)cc1N1C(=O)CS/C1=N\C(=O)Nc1ccc(-c2ncn(-c3ccc(OC(F)(F)F)cc3)n2)cc1Cl` [Compound J166, (Z)-1-(2-Chloro-4-(1-(4-(trifluoromethoxy)phenyl)-1H-1,2,4-triazol-3-yl)phenyl)-3-(3-(5-(dimethylamino)-2-isopropylphenyl)-4-oxothiazolidin-2-ylidene)urea], the pest or weed control at 50 µg/cm2 in experiment [1] (setting [3]) and in experiment [2] (setting [4]) was 50 to 100% each time. As to `CC(C)c1ccc(N(C)C)cc1N1C(=O)CS/C1=N\C(=O)Nc1ccc(-n2cnc(-c3ccc(OC(F)(F)F)cc3)n2)cc1` [Compound J408, (Z)-1-(3-(5-(Dimethylamino)-2-isopropylphenyl)-4-oxothiazolidin-2-ylidene)-3-(4-(3-(4-(trifluoromethoxy)phenyl)-1H-1,2,4-triazol-1-yl)phenyl)urea], the pest or weed control at 50 µg/cm2 in experiment [1] (read-out: BAW rating) and in experiment [2] (read-out: CL rating) was 50 to 100% each time. As to `Cc1ccc(COCC(F)(F)F)c(N2C(=O)CS/C2=N\C(=O)Nc2ccc(-n3cnc(-c4ccc(C(F)(F)F)cc4)n3)cc2F)c1` [Compound J698, (Z)-1-(2-fluoro-4-(3-(4-(trifluoromethyl)phenyl)-1H-1,2,4-triazol-1-yl)phenyl)-3-(3-(5-methyl-2-((2,2,2-trifluoroethoxy)methyl)phenyl)-4-oxothiazolidin-2-ylidene)urea], the pest or weed control at 50 µg/cm2 in experiment [1] (read-out: BAW rating) and in experiment [2] (read-out: CL rating) was 50 to 100% in each case.

`Cc1ccc(OCCC(F)(F)F)c(N2C(=O)CS/C2=N\C(=O)Nc2ccc(-c3ncn(-c4ccc(C(F)(F)F)cn4)n3)cc2F)c1` [Compound J307, (Z)-1-(2-Fluoro-4-(1-(5-(trifluoromethyl)pyridin-2-yl)-1H-1,2,4-triazol-3-yl)phenyl)-3-(3-(5-methyl-2-(3,3,3-trifluoropropoxy)phenyl)-4-oxothiazolidin-2-ylidene)urea]: the pest or weed control at 50 µg/cm2 in experiment [1] (setting [3]) and in experiment [2] (setting [4]) was 50 to 100% in each case. In the case of `CCCc1ccc(C)cc1N1C(=O)CS/C1=N\C(=O)Nc1ccc(-c2cn(-c3ccc(S(F)(F)(F)(F)F)cc3)cn2)cc1F` [Compound J590, (Z)-1-(2-Fluoro-4-(1-(4-(pentafluoro-λ^6-sulfaneyl)phenyl)-1H-imidazol-4-yl)phenyl)-3-(3-(5-methyl-2-propylphenyl)-4-oxothiazolidin-2-ylidene)urea], the pest or weed control at 50 µg/cm2 in experiment [1] (read-out: BAW rating) and in experiment [2] (read-out: CL rating) was 50 to 100% throughout.

In the case of `Cc1ccc(OCC(F)(F)F)c(N2C(=O)CS/C2=N\C(=O)Nc2ccc(-c3ncn(-c4ccc(OC(F)(F)F)cc4)n3)cc2O)c1` [Compound J176, (Z)-1-(2-Hydroxy-4-(1-(4-(trifluoromethoxy)phenyl)-1H-1,2,4-triazol-3-yl)phenyl)-3-(3-(5-methyl-2-(2,2,2-trifluoroethoxy)phenyl)-4-oxothiazolidin-2-ylidene)urea], the pest or weed control at 50 µg/cm2 in experiment [1] (setting [3]) fell in the range of 0 to 50%. For the compound `CN(C)c1ccc(C(F)(F)F)c(N2C(=O)CS/C2=N\C(=O)Nc2ccc(-c3cn(-c4ccc(OC(F)(F)F)cc4)nn3)cc2)c1` [Compound J495, (Z)-1-(3-(5-(Dimethylamino)-2-(trifluoromethyl)phenyl)-4-oxothiazolidin-2-ylidene)-3-(4-(1-(4-(trifluoromethoxy)phenyl)-1H-1,2,3-triazol-4-yl)phenyl)urea], in experiment [1] (read-out: BAW rating), the pest or weed control at 50 µg/cm2 was 0 to 50%. As to `Cc1ccc(OCCC(F)(F)F)c(N2C(=O)CS/C2=N\C(=O)Nc2ccc(-c3cn(-c4ccc(OC(F)(F)F)cc4)nn3)cc2)c1` [Compound J491, (Z)-1-(3-(5-Methyl-2-(3,3,3-trifluoropropoxy)phenyl)-4-oxothiazolidin-2-ylidene)-3-(4-(1-(4-(trifluoromethoxy)phenyl)-1H-1,2,3-triazol-4-yl)phenyl)urea], in experiment [1] (read-out: BAW rating), the pest or weed control at 50 µg/cm2 is 50 to 100%. On to `COC(c1ccc(C)cc1N1C(=O)CS/C1=N\C(=O)Nc1ccc(-c2nnc(-c3ccc(OC(F)(F)F)cc3)s2)cc1F)C(F)(F)F` (stereo not drawn) [Compound J505, (Z)-1-(2-Fluoro-4-(5-(4-(trifluoromethoxy)phenyl)-1,3,4-thiadiazol-2-yl)phenyl)-3-(3-(5-methyl-2-(2,2,2-trifluoro-1-methoxyethyl)phenyl)-4-oxothiazolidin-2-ylidene)urea], for which the pest or weed control at 50 µg/cm2 in experiment [2] (read-out: CL rating) lay within 50 to 100%. For the compound `COC(C)c1ccc(C)cc1N1C(=O)CS/C1=N\C(=O)Nc1ccc(-c2ncn(-c3ccc(C(F)(F)F)cn3)n2)cc1C(C)=O` (stereo not drawn) [Compound J416, (Z)-1-(2-Acetyl-4-(1-(5-(trifluoromethyl)pyridin-2-yl)-1H-1,2,4-triazol-3-yl)phenyl)-3-(3-(2-(1-methoxyethyl)-5-methylphenyl)-4-oxothiazolidin-2-ylidene)urea], in experiment [2] (read-out: CL rating), the pest or weed control at 50 µg/cm2 lay within 50 to 100%.

As for `O=C(/N=C1\SCC(=O)N1c1cccc(-c2ccccc2)c1)Nc1ccc(-c2ncn(-c3ccc(OC(F)(F)F)cc3)n2)cc1F` [Compound J715, (Z)-1-(3-([1,1′-Biphenyl]-3-yl)-4-oxothiazolidin-2-ylidene)-3-(2-fluoro-4-(1-(4-(trifluoromethoxy)phenyl)-1H-1,2,4-triazol-3-yl)phenyl)urea], in experiment [1] (read-out: BAW rating), the pest or weed control at 50 µg/cm2 lay within 0 to 50%. The same measure, in the same setting: next, `Cc1ccc(OCCC(F)(F)F)c(N2C(=O)CS/C2=N\C(=O)Nc2ccc(-c3nnc(-c4ccc(OC(F)(F)F)cc4)s3)cc2F)c1` [Compound J501, (Z)-1-(2-Fluoro-4-(5-(4-(trifluoromethoxy)phenyl)-1,3,4-thiadiazol-2-yl)phenyl)-3-(3-(5-methyl-2-(3,3,3-trifluoropropoxy)phenyl)-4-oxothiazolidin-2-ylidene)urea]: 50 to 100%; `CC(=O)c1cc(-c2ncn(-c3ccc(C(F)(F)F)cn3)n2)ccc1NC(=O)/N=C1\SCC(=O)N1c1cc(C)ccc1COCC(F)(F)F` [Compound J418, (Z)-1-(2-Acetyl-4-(1-(5-(trifluoromethyl)pyridin-2-yl)-1H-1,2,4-triazol-3-yl)phenyl)-3-(3-(5-methyl-2-((2,2,2-trifluoroethoxy)methyl)phenyl)-4-oxothiazolidin-2-ylidene)urea]: 0 to 50%. For `CCOCc1ccc(C)cc1N1C(=O)CS/C1=N\C(=O)Nc1ccc(-c2nnc(-c3ccc(OC(F)(F)F)cc3)s2)cc1F` [Compound J503, (Z)-1-(3-(2-(Ethoxymethyl)-5-methylphenyl)-4-oxothiazolidin-2-ylidene)-3-(2-fluoro-4-(5-(4-(trifluoromethoxy)phenyl)-1,3,4-thiadiazol-2-yl)phenyl)urea], the pest or weed control at 50 µg/cm2 in experiment [2] (read-out: CL rating) lay in the range of 50 to 100%.

The values are drawn from patent publication US20230077362A1 (CORTEVA AGRISCIENCE LLC, priority 2019, published 2023).
